Test system: Male beagle dogs
Test: canine telemetry protocol, blood pressure reduction efficacy
Type: in vivo
Details: change from baseline, 3 mg/kg oral gavage; for ΔPP (mm Hg) 1-6 h / ΔPP (mm Hg) 6-12 h / ΔPP (mm Hg) 12-18 h: pulse pressure; for ΔSBP (mm Hg) 1-6 h / ΔSBP (mm Hg) 6-12 h / ΔSBP (mm Hg) 12-18 h: systolic blood pressure
Protocol: Compounds of the invention were evaluated for blood pressure reduction efficacy using the following canine telemetry protocol described below.
Male beagle dogs (approximately 1-3 years old) with a body weight of between 10 and 16 kg were surgically implanted with DSI radiotelemetry devices (model: TL11M2-D70-PCT). Briefly, under an inhalant anesthesia, isoflurane/oxygen mixture (1-3.5%/to effect), the body of the telemetry device was positioned and secured intra-abdominally. Subsequently, the arterial catheter of the telemetry device was passed subcutaneously to the inguinal area and introduced into the femoral artery and advanced to the level of the descending aorta. The catheter was secured with 2-0 silk ligatures. The muscle and underlying fascia was closed over the catheter using absorbable suture and the skin was closed using non-absorbable suture. The animals were allowed a minimum recovery period of 2 weeks between surgery and the evaluation of test compounds.
Compound evaluation consisted of a 3 day paradigm at a 3 mg/kg dose. On the first day, no compounds were administered during a 24 hour period of baseline data collection. Blood pressure and heart rate data were collected continuously for one minute periods at 10 minute intervals. On the days of compound administration half the animals received test article with the other half receiving the vehicle used for compound formulation. All test materials were administered by oral gavage in a volume of 1 mL/kg. Data are expressed either as raw values (mm Hg or beats per minute) or as the change from baseline (average value for about 12 hours in low activity period prior to dosing). Change is SBP (systolic blood pressure) and PP (pulse pressure) over time is shown below: […]

SMILES	ΔPP (mm Hg) 1-6 h	ΔPP (mm Hg) 6-12 h	ΔPP (mm Hg) 12-18 h	ΔSBP (mm Hg) 1-6 h	ΔSBP (mm Hg) 6-12 h	ΔSBP (mm Hg) 12-18 h
CCN(/[N+]([O-])=N/O[C@H]1CC[C@@H](C(=O)O)CC1)C(C)(C)C [Example 1, Cis-4-({[(1Z)-2-tert-butyl-2-ethyl-1-oxido-1λ^5-diazan-1-ylidene]amino}oxy)-cyclohexanecarboxylic acid]	−1 mm Hg	−6 mm Hg	−1 mm Hg	−9 mm Hg	−5 mm Hg	−1 mm Hg
CCN(/[N+]([O-])=N/O[C@H]1CC[C@H](C(=O)O)CC1)C(C)(C)C [Example 2, Trans-4-({[(1Z)-2-tert-butyl-2-ethyl-1-oxido-1λ^5-diazan-1-ylidene]amino}oxy)-cyclohexanecarboxylic acid]	−9 mm Hg	−9 mm Hg	−7 mm Hg	−14 mm Hg	−10 mm Hg	−9 mm Hg
CN(/[N+]([O-])=N/O[C@H]1CC[C@@H](C(=O)O)CC1)C(C)(C)C [Example 3, Cis-4-({[(1Z)-2-tert-butyl-2-methyl-1-oxido-1λ^5-diazan-1-ylidene]amino}oxy)-cyclohexanecarboxylic acid]	−7 mm Hg	−8 mm Hg	−5 mm Hg	−8 mm Hg	−10 mm Hg	−5 mm Hg
CN(/[N+]([O-])=N/O[C@H]1CC[C@H](C(=O)O)CC1)C(C)(C)C [Example 6, Trans-4-({[(1Z)-2-tert-butyl-2-methyl-1-oxido-1λ^5-diazan-1-ylidene]amino}oxy)-cyclohexanecarboxylic acid]	−12 mm Hg	−4 mm Hg	−2 mm Hg	−18 mm Hg	−4 mm Hg	−2 mm Hg
CCCCN(/[N+]([O-])=N/O[C@H]1CC[C@H](C(=O)O)CC1)C(C)(C)C [Example 8, Trans-4-({[(1Z)-2-butyl-2-tert-butyl-1-oxido-1λ^5-diazan-1-ylidene]amino}oxy)-cyclohexanecarboxylic acid]	−11 mm Hg	−15 mm Hg	−12 mm Hg	−14 mm Hg	−14 mm Hg	−8 mm Hg
